Experimental data reported in PMC3543149 (Diabetologia, 2012).

Biological target: T1, PKC-ι (Homo sapiens, UniProt P41743)
T1 sequence (P41743 2-596): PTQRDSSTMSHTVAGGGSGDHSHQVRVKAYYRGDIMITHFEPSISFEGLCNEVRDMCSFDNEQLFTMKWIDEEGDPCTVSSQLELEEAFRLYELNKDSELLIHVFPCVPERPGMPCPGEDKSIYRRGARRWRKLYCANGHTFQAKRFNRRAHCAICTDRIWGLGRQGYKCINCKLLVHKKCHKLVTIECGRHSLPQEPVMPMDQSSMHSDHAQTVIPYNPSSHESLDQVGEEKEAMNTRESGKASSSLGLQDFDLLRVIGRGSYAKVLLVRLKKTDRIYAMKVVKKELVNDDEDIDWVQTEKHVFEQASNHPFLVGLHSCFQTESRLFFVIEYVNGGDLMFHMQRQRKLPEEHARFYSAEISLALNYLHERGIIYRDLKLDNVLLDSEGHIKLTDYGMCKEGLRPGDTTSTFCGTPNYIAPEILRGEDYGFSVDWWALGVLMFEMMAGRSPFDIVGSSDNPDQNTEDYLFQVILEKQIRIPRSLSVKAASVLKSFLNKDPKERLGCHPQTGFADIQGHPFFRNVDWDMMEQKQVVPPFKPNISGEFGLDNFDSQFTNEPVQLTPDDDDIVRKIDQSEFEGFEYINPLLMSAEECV
Assay: […]-ATP kinase assay of recombinant PKC-ι activated by PIP3, dose response
Format: biochemical

For NC(=O)c1ncn([C@@H]2C[C@H](COP(=O)(O)O)[C@@H](O)[C@H]2O)c1N [ICAPP], which IC50 is on record?
The IC50 was 10 to 100 nM.
